These results are taken from US5952294A, “Peptidyl prodrugs and methods of making and using the same” (University of Pittsburgh of the Commonwealth System of …, priority 1996, dated 1999).

A short description of data set [1]: Release of ara-C from prodrugs (cyclization) in CD3OD or D2O monitored by 1H NMR. The data set is classed as physicochemical. Particulars: for Half-life (hours) for release of ara-C, t1/2: 22° C., 1H NMR. The protocol: The stability of the ara-C prodrug compounds 10, 15, 17 and 19, prepared according to Example 1, in various reaction media was investigated by NMR and HPLC analyses. The ^1 H NMR studies of the cyclization process were performed on a 4 mg/ml solution of prodrug in CD3 OD or D2 O. Sodium acetate (2 mg) or acetic acid (2 microliters) were added neat to the samples to control the pH. The spectra were collected in appropriate time intervals, and the ratio of prodrug to drug was determined by comparing the integration of the H-C (6) on the nucleoside of prodrug and ara-C.

Data set [2] is described as follows: Release of ara-C from prodrugs in bovine plasma by HPLC. Conditions: pH 7.4, 22° C. The data set is classed as in vitro ADME. How it is done: (§1) HPLC studies of the cyclization process in plasma were performed on a 4 mg/ml solution of prodrug in plasma. At appropriate time intervals, 25 microliter aliquots were removed and 0.20 ml of CH3 CN was added to precipitate the protein. After centrifugation, about 25 microliters of clear supernatant liquid was injected directly into the HPLC port. The HPLC analysis was performed with a C-18 reverse phase column using an H2 O/CH3 CN (1:1) eluent and the UV detector was set at 250 nm. The relative concentration of ara-C was determined by the relative peak areas. […] The disappearance of characteristic signals of the prodrugs was accompanied by the appearance of signals of ara-C and the corresponding heterocycles. […] FIGS. 6 through 8 plot the percent concentration of prodrug over time. Table 1 below provides the half life (in hours) for ara-C release of prodrugs 10, 15, 17 and 19 as determined by NMR and HPLC analysis.

Data set [3] deals with Murine L-1210 leukemia cells. Description: L-1210 cell line growth inhibition assay. The class given is cell-based. The protocol: The antiproliferation activity of compounds 10, 15, 17 and 19, as compared to ara-C, was tested in an L-1210 cell line growth inhibition assay using various concentrations and continuous exposure. Cell numbers were determined 72 hours after initial drug exposure. Murine L-1210 leukemia cells were grown in suspension using Dulbecco's medium (Gibco/BRL) supplemented with 10% fetal bovine serum (FBS, HyClone), […] of L-glutamine, 100 U/ml penicillin G sodium, and 100 μg/m1 streptomycin (Gibco/BRL). Cells were grown in a humidified incubator as 37° C. under an atmosphere of 95% air and 5% CO2. Cells were routinely passaged at a 1:5 ratio and found to be free of mycoplasma contamination.

Data set [4] concerns human promyelocytic leukemia HL-60 cells. Nature of the data set: Induction of apoptosis (morphology) in HL-60 cells. Particulars: for Maximum percentage of cells exhibiting frank apoptotic morphology: FIG. 9; for Appearance of apoptotic bodies / increase in apoptosis: 24 hours exposure, about 10 micromols. The class given is cell-based. The protocol: (§2) The ability of the prodrug compounds to kill human tumor cells was tested, specifically their ability to induce apoptosis in human promyelocytic leukemia HL-60 cells. These cells are known to undergo apoptosis following exposure to ara-C. The ability of the prodrugs to cause internucleosomal DNA fragmentation, a characteristic feature of apoptosis in HL-60 cells, was also investigated. The HL-60 were cultured in essentially the same manner as the L-1210 cells, only using Iscoue's modification for the medium. Internucleosomal DNA fragmentation was determined as follows. Following the indicated drug treatments, aliquots of cells (1×10^6) were pelleted by centrifugation at 100×g for 5 minutes, washed with PBS, solubilized with 20 microliters of lysis buffer (10 mM EDTA, 0.5% sarkosyl, 1 mg/ml proteinase K, 50 mM Tris, pH8), and incubated at 50° C. for 1 hour. After incubation, RNaseA (Boehringer Mannheim) was added to a final concentration of 0.33 mg/ml and incubated for an additional hour at 37° C. The lysate was loaded into dry wells of a 1.8% agarose gel, the wells were sealed with low melting point agarose, and the DNA was electrophoresed using Tris-phosphate-EDTA (TPE) running buffer. After electrophoresis, the DNA was stained by immersion of the gel in water containing 1 μg/ml ethidium bromide (Sigma). The DNA was visualized and photographed using an ultraviolet transilluminator.
The formation of apoptotic bodies occurred within a maximal halftime of 4 hours and there was no noticeable difference in the kinetics of apoptosis among ara-C, 10, 15 and 17.

Data set [5] is described as follows: Stability in bovine or human plasma by HPLC (plasma not distinguished). Conditions: for Cyclization / stability in plasma: bovine or human plasma, HPLC. The data set is classed as in vitro ADME. How it is done: as §1
The stability of these compounds in bovine and human plasma was determined by HPLC analysis (Entry 5 and 6 in Table 1).

Data set [6] can be described thus: Release of ara-C from prodrugs in human plasma by HPLC. The data set is classed as in vitro ADME. Conditions: pH 7.4, 22° C. How it is done: as §1
For data set [7], the system named is human promyelocytic leukemia HL-60 cells. Description: Internucleosomal DNA fragmentation in HL-60 cells. The data set is classed as cell-based. How it is done:
as §2, with “These cells are known to undergo apoptosis following exposure to ara-C.” left out
DNA fragmentation of the compounds was tested.

The conditions of data set [8]: total; cited from earlier work.
Where [9] appears, read: continuous exposure, cell numbers 72 hours after initial drug exposure.
Setting [10] is: Mus musculus, L1210, continuous exposure, cell numbers 72 hours after initial drug exposure.

In brackets after ≈: the same amount, converted by molar mass. Where only a bound is given, the exact number is not on record here.

For `CC(C)(NC(=O)[C@@H](N)Cc1ccc(OCc2ccccc2)cc1)C(=O)Nc1ccn([C@@H]2O[C@H](CO)[C@@H](O)[C@@H]2O)c(=O)n1.Cl` [Compound 10, Tyr(OBn)-Aib-ara-C hydrochloride], the “Half-life (hours) for release of ara-C, t1/2” value (“Half-life (hours) for release” below) stood at 42 h in data set [1] (CD3OD); 31 h in data set [1] (CD3OD, HOAc); 0.3 h in data set [1] (CD3OD, NaOAc); 21 h in data set [1] (D2O); 0.4 h in data set [2]; 0.3 h in data set [6]. The “Faster cyclization upon change from CD3OD to D2O” value in data set [1] (D2O versus CD3OD) is “about 50%”. The “IC50 and IC90 values compared with ara-C control” value in data set [3] (L-1210 cells) is “essentially identical to the ara-C control”. The “L-1210 Cell Growth Inhibition IC50” value in data set [3] (setting [9]) was 1.3 ng/mL. In data set [3] (setting [9]), the “L-1210 Cell Growth Inhibition IC90” value amounted to 5 ng/mL. Also, the “Maximal halftime of formation of apoptotic bodies” value (shortened to “Maximal halftime”) in data set [4] was no more than 4 h. Further, the “Maximum percentage of cells exhibiting frank apoptotic morphology” value in data set [4] was “approximately 25%”. The “Cyclization / stability in plasma” value in data set [5] is given as “cyclize readily”.
Regarding `CC(C)(N)C(=O)NNC(=O)Nc1ccn([C@@H]2O[C@H](CO)[C@@H](O)[C@@H]2O)c(=O)n1.Cl` [Compound 19, Aib-2-Azagly-ara-C hydrochloride], the “Half-life (hours) for release” value in data set [1] (CD3OD) is greater than 2000 h; in data set [1] (CD3OD, HOAc), greater than 2000 h; in data set [1] (CD3OD, NaOAc) it was 800 h; in data set [2], greater than 10 h; in data set [6], greater than 10 h. Further, the figures for the “Cyclization to release the drug” value in data set [1] (in the presence of NaOAc) and in data set [1] (neutral or acid conditions) were “extremely slow” and “did not undergo cyclization”, respectively. Besides, in data set [7] (compound preincubated in serum-free medium for 15 days), the “DNA fragmentation after preincubation” value is reported as “DNA ladders similar ara-C”. For the same molecule, the “Times less toxic than ara-C in L-1210 test” value in data set [3] (L-1210 cells, versus ara-C) is reported as “about 500 times”. Besides, the “L-1210 Cell Growth Inhibition IC50” value in data set [3] (setting [9]) worked out at 600 ng/mL. For the same molecule, in data set [3] (setting [9]), the “L-1210 Cell Growth Inhibition IC90” value came out at 1400 ng/mL. Also, the “Appearance of apoptotic bodies / increase in apoptosis” value in data set [4] is on record as “no obvious increase in apoptosis”. Besides, the “Apoptotic activity after preincubation” value in data set [4] (compound preincubated in serum-free medium for 15 days, FIG. 10) was “slightly less than ara-C”. Besides, the “Cyclization / stability in plasma” value in data set [5] is “good stability”. Also, the “ara-C detected in plasma after 48 hours” value in data set [5] (plasma, after 48 hours) is given as “No ara-C was detected”.
For orientation: IC50 means the concentration needed to halve the response being measured. Low readings indicate higher potency, high ones lower potency. As usually defined, the IC90 is the concentration at which the effect reaches the 90% level. High values mean a need for much substance, low ones an effect from little substance. `Nc1ccn([C@@H]2O[C@H](CO)[C@@H](O)[C@@H]2O)c(=O)n1` [ara-C, 1-(β-D-arabinofuranosyl) cytosine, reference compound]: in data set [7] (about 10 micromols, 4 hours), the “Internucleosomal DNA fragmentation” value is “displayed internucleosomal 180-200 base pair DNA fragments”. Besides, in data set [3] (setting [10]), the IC50 came out at 1.5 ng/mL (≈ 0.00617 µM) and it took 4.3 ng/mL (≈ 0.0177 µM) to reach the 90% level (IC90). In data set [4], the “Maximal halftime” value was no more than 4 h, the “Appearance of apoptotic bodies / increase in apoptosis” value is recorded as “obvious apoptotic bodies” and the “Maximum percentage of cells exhibiting frank apoptotic morphology” value is “approximately 25%”. The “Fraction of dose excreted in the urine within 24 hours” value in data set [8] was “About 80%”.
As for “Aib-Aib-ara-C hydrochloride [Compound 15]”, the “Half-life (hours) for release” value in data set [1] (CD3OD) is greater than 1000 h; in data set [1] (CD3OD, HOAc) it was greater than 1000 h; in data set [1] (CD3OD, NaOAc), 1.3 h; in data set [2], 0.5 h; in data set [6], 0.4 h. Besides, the “IC50 and IC90 values compared with ara-C control” value in data set [3] (L-1210 cells) is recorded as “essentially identical to the ara-C control”. Moreover, the “L-1210 Cell Growth Inhibition IC50” value in data set [3] (setting [9]) came to 1.1 ng/mL. The “L-1210 Cell Growth Inhibition IC90” value in data set [3] (setting [9]) was found to be 3.4 ng/mL. The “Maximal halftime” value in data set [4] was no more than 4 h. Also, in data set [4], the “Maximum percentage of cells exhibiting frank apoptotic morphology” value is listed as “approximately 25%”. In addition, in data set [5], the “Cyclization / stability in plasma” value was “cyclize readily”.
On to Glc-Aib-ara-C [Compound 17], for which the “Half-life (hours) for release” value in data set [1] (CD3OD) is 360 h; in data set [1] (CD3OD, HOAc) it was 860 h; in data set [1] (CD3OD, NaOAc), 1.4 h; in data set [2] it was 0.4 h; in data set [6], 0.3 h. The “IC50 and IC90 values compared with ara-C control” value in data set [3] (L-1210 cells) is “essentially identical to the ara-C control”. The “L-1210 Cell Growth Inhibition IC50” value in data set [3] (setting [9]) is 1.0 ng/mL. Besides, in data set [3] (setting [9]), the “L-1210 Cell Growth Inhibition IC90” value came out at 3.4 ng/mL. Moreover, the “Maximal halftime” value in data set [4] is no more than 4 h. Further, the “Maximum percentage of cells exhibiting frank apoptotic morphology” value in data set [4] is given as “approximately 25%”. The “Cyclization / stability in plasma” value in data set [5] was “cyclize readily”.
